Source: ChEMBL document CHEMBL1201862, “PubChem BioAssay data set” (2004)
Activity calls are given as the source filed them. Rule as the data show it, for most assays here: actives have a measured EC50 and inactives only a lower limit.

Columns and labels:
[1] = growth suppression of PTEN-null colon cells, dose response, cell-based, HCT116 PTEN knockout (AID 1047); type: functional;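 also: HCT116 colon tumor cells with PTEN knocked out; cells exposed to compound for 60 hours before readout; potency for loss of cell viability measured by luminescence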
[2] = growth suppression of beta-catenin-knockout colon cells, dose response, cell-based, HCT116, human colon tumor (AID 1045); type: functional;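 also: HCT116 colon tumor cells with beta catenin knocked out; cells exposed to compound for 60 hours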
H9c2 = test: cells; type: functional, cell-based; settings: Rattus norvegicus, H9c2, Myocardium;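 also: confirmatory concentration-response retest of ultra-high-throughput screening hits for modulation of myocardial damage; cell death induced by hydrogen peroxide oxidative stress; compound pretreatment for 60 min then peroxide exposure for 2 h; potency is for protecting the cells against peroxide damage rather than for killing them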
[3] = NIH-3T3 fibroblast cytotoxicity, dose response, cytotoxicity control, cell-based, fluorescence, Alamar Blue, secondary assay (AID 2327); type: functional;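 also: NIH-3T3 mouse fibroblasts cultured with fluconazole at 8 µg/mL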
[4] = C. albicans growth with fluconazole, confirmation, fluorescence, retest (AID 2467); type: functional, cell-based
[5] = inhibitors of intracellular T. cruzi replication, confirmation, NIH3T3 host cells, beta-gal luminescence (AID 2044); type: functional, cell-based;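 also: intracellular parasites grown in NIH/3T3 mouse fibroblasts as host cells; luminescent beta-galactosidase reporter signal from transgenic T. cruzi replicating inside host cells; inhibitors lower the luminescence signal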
[6] = cytotoxicity toward NIH3T3 fibroblasts, dose response, counter-screen, cell-based, ATP luminescence, mouse fibroblasts (AID 2010); type: functional;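 also: cells exposed to compound for about 90 hours before reading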
[7] = Luminescence Cell-Based Dose Confirmation HTS to Identify Activators of 5'UTR Stem-Loop Driven Alpha-Synuclein mRNA Translation in H4 Neuroglioblastoma Cells. [Related pubchem assays: 1829 (Project Summary), 1814 (Primary HTS)]; type: functional
[8] = Luminescence Cell-Based Dose Response HTS to Identify Activators of Luciferase Translation or Activity in H4 […] Cells. [Related pubchem assays: 1829 (Project Summary), 1814 (Primary HTS)]; type: functional
H4 = test: Luminescence Cell-Based Dose Response HTS to Identify Activators of 5'UTR Stem-Loop Driven Prion Protein mRNA Translation in H4 Neuroglioblastoma Cells. [Related pubchem assays: 1829 (Project Summary), 1814 (Primary HTS)]; type: functional; settings: Homo sapiens
[9] = inhibitors of firefly luciferase expression or activity, dose response, H4 neuroglioma cells, luminescence (AID 1990); type: functional, cell-based
[10] = Luminescence Cell-Based Dose Response HTS to Identify Inhibitors of 5'UTR Stem-Loop Driven Prion Protein mRNA Translation in H4 Neuroglioblastoma Cells. [Related pubchem assays: 1827 (Project Summary), 1813 (Primary HTS)]; type: functional
[11] = inhibitors of SNCA 5'UTR-driven reporter translation, confirmation, H4 neuroglioma cells, luminescence (AID 1988); type: functional, cell-based
[12] = target: T1, Heat shock factor protein 1 (Mus musculus, UniProt P38532); test: inhibition of MG132-induced HSE-luciferase signal, confirmation, cell-based, NIH3T3, luminescence, dose retest (AID 2382); type: functional;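 also: NIH3T3 fibroblasts with HSF1-driven luciferase reporter stressed by proteasome inhibitor MG132; luminescence from HSF1-driven luciferase expression after 8 hours of MG132 stress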
T1 sequence (P38532 whole entry): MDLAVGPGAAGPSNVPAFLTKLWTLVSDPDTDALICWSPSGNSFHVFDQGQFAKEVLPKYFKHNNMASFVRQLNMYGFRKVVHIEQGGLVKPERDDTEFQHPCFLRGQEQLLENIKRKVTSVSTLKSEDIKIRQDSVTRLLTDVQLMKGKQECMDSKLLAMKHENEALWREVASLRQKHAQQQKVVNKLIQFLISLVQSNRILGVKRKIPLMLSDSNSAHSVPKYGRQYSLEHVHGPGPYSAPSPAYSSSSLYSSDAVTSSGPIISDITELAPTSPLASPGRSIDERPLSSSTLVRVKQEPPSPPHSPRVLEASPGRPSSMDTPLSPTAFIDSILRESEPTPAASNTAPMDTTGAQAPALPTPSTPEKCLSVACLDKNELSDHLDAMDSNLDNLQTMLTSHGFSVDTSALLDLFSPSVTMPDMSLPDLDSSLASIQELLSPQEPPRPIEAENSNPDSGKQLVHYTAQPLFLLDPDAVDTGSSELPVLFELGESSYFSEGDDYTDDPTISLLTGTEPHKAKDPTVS

[13] = target: T2, Replicative DNA helicase DnaB (Mycobacterium tuberculosis, UniProt P9WMR3); test: DnaB intein splicing inhibitors, dose response, biochemical, cell-free fluorescence (AID 449749); type: functional
T2 sequence (P9WMR3 whole entry): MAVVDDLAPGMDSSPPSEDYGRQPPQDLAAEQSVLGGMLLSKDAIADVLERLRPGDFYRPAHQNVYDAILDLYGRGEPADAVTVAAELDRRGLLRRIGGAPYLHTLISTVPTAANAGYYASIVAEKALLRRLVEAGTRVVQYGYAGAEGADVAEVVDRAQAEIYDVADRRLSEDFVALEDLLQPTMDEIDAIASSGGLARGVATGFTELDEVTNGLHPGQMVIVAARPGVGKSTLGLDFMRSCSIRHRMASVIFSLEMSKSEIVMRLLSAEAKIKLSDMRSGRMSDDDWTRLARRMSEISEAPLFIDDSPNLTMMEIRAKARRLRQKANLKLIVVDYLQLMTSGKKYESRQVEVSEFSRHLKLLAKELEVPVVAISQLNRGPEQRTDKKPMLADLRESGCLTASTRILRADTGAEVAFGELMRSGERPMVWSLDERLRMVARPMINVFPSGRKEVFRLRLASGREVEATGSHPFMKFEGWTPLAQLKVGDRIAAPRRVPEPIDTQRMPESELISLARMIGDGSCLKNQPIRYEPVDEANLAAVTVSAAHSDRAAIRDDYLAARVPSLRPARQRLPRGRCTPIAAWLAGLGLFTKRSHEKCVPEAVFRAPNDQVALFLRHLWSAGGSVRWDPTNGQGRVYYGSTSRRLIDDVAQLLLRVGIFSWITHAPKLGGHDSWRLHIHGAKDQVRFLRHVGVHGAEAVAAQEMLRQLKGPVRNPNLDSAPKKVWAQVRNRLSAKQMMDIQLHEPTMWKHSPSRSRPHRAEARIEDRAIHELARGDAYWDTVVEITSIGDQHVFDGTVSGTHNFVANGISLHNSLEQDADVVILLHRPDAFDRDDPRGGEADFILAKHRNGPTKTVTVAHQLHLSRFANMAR

Protein RecA = target: T3, Protein RecA (Mycobacterium tuberculosis, UniProt P9WHJ3); test: Fluorescence Cell-Free Homogeneous Dose Retest to Identify Inhibitors of RecA-Intein Splicing Activity. [Related pubchem assays (depositor defined):AID2097, AID2223, AID489010, AID492950]; type: functional
T3 sequence (P9WHJ3 whole entry): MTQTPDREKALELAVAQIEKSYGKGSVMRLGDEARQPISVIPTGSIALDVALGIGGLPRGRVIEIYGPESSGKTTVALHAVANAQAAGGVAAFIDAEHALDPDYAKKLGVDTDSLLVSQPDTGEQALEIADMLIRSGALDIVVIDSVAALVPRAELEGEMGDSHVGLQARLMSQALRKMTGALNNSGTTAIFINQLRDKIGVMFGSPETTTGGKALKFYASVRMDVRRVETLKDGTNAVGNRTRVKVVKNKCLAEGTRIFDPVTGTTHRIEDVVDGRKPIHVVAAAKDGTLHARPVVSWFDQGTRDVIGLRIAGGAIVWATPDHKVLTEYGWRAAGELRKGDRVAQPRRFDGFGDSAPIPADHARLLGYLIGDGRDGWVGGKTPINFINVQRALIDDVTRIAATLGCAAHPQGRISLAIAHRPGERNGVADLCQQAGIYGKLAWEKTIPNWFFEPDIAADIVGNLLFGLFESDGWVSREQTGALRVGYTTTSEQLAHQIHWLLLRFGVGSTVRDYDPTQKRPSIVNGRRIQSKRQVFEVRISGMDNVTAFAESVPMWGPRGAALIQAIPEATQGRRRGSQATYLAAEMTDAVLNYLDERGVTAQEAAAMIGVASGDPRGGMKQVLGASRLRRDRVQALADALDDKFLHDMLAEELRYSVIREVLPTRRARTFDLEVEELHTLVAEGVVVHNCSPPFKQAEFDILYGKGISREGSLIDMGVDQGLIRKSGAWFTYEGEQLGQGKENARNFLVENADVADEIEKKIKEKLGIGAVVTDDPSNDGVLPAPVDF

cells [14] = type: functional, cell-based
cells [15] = type: functional, cell-based; remark: listed apart in the source
INS1 = test: beta cell apoptosis inhibitors, cytokine rescue, dose response, luminescence, retest (AID 449756); type: functional, cell-based; settings: Rattus norvegicus;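 also: cell death triggered by IL-1 beta plus TNF-alpha plus IFN-gamma mixture; protective hits raise ATP signal compared with cytokine alone wells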

Structure (SMILES): COc1ccc(/C=C2\CN(Cc3ccccc3)C/C(=C\c3ccc(OC)cc3)C2=O)cc1
- EC50 [1]: 6.02 µM (active)
- EC50 [2]: 5.52 µM (active)

Structure (SMILES): COc1cc(-c2cc(C(=O)N3CCN(c4ccccn4)CC3)c3ccccc3n2)cc(OC)c1OC
- IC50 (H9c2): > 79 µM (inactive)

Structure (SMILES): O=Nc1c(O)n(Cc2cccc(C(F)(F)F)c2)c2ccccc12
- EC50 [3]: > 160 µM (inactive)
- EC50 [4]: 1.89 µM (active)

Structure (SMILES): Cc1cnc(NC(=O)CSc2nc(O)c3ccccc3n2)s1
- IC50 (H9c2): > 79 µM (inactive)

Structure (SMILES): Fc1ccc(-c2cc3nc(-c4ccccc4)cc(N4CCN(CCN5CCOCC5)CC4)n3n2)cc1
- EC50 [5]: 4.9 µM (active)
- EC50 [1]: 71.2 µM (active)
- EC50 [6]: 7.58 µM (active)
- EC50 [2]: 85 µM (active)

Structure (SMILES): O=C(NN=Cc1cccc([N+](=O)[O-])c1)c1cc(-c2cccnc2)nc2ccccc12
- IC50 (H9c2): > 79 µM (inactive)

Structure (SMILES): COc1ccc2nc(O)c(CN(c3ccccc3OC)S(=O)(=O)c3ccccc3)cc2c1
- EC50 [7]: > 120 µM (not active)
- EC50 [8]: 14.3 µM (active)
- EC50 (H4): > 120 µM (not active)
- IC50 (H9c2): 13.3 µM (active)

Structure (SMILES): COc1ccc(CN2C(=O)NC(=O)/C(=C\NNC(=O)c3ccccc3)C2=O)cc1
- EC50 [3]: 56 µM (active)

Structure (SMILES): CSCCC1NC2(C(=O)Nc3c(C)cc(Cl)cc32)[C@@H]2C(=O)N(C3CCCC3)C(=O)[C@H]12 (stereo not given in full)
- EC50 [3]: > 150 µM (inactive)
- EC50 [4]: > 38 µM (not active)

Structure (SMILES): CCn1c(O)c(/C=N/N=C2CCCCC2)c2cc(C3=NNC(=O)CC3)ccc21
- IC50 (H9c2): > 79 µM (inactive)

Structure (SMILES): O=C(NN=C(S)Nc1ccc(Cl)cc1)c1ccccc1OC(F)F
- EC50 [3]: 72.6 µM (active)
- EC50 [4]: 6.72 µM (active)

Structure (SMILES): CSc1ccccc1NC(=O)c1ccc(N2CC3CC(C2)c2cccc(=O)n2C3)c(NC(=O)c2cccnc2)c1 (stereo not given)
- EC50 [9]: > 120 µM (not active)
- EC50 [10]: > 120 µM (not active)
- EC50 [11]: > 120 µM (not active)

Structure (SMILES): Cc1ccc(CNC(=O)CCc2nc(O)c3ccccc3n2)cc1
- IC50 (H9c2): 12.5 µM (active)

Structure (SMILES): Fc1ccc(-n2cc(-c3ccccc3)c3c(N4CCOCC4)ncnc32)cc1
- EC50 [12]: 2.3 µM (active)
- IC50 (H9c2): > 79 µM (inactive)

Structure (SMILES): Cc1cccc(C2c3[nH]c4ccccc4c3CCN2C(=O)c2cc(-c3cccn3C)[nH]n2)n1 (stereo not given)
- EC50 [3]: > 160 µM (inconclusive)
- EC50 [4]: 3.22 µM (active)

Structure (SMILES): COc1ccc(-c2[nH]nc(C)c2-c2cnn(-c3ccccc3)c2)c(O)c1
- EC50 [3]: > 160 µM (inactive)
- EC50 [4]: 3.77 µM (active)

Structure (SMILES): O=Cc1ccc(Sc2nnc(-c3ccccc3)o2)c([N+](=O)[O-])c1
- EC50 [1]: 21.4 µM (active)
- EC50 [2]: 18.1 µM (active)
- AC50 [13]: 9.51 µM (active)
- EC50 (Protein RecA): 5.46 µM (active)

Structure (SMILES): COc1cccc(NC(=O)c2ccc3nc(C)sc3c2)c1
- EC50 [3]: > 160 µM (inconclusive)
- EC50 [4]: 1.53 µM (active)

Structure (SMILES): O=C1c2ccccc2C(=O)N1CCCCN(C(=O)c1cc2ccccc2oc1=O)c1ccc(F)cc1F
- EC50 [9]: > 120 µM (not active)
- EC50 [10]: > 120 µM (not active)
- EC50 [11]: > 120 µM (not active)

Structure (SMILES): c1ccc2c(c1)CSc1ccccc1N2
- EC50 [9]: > 120 µM (not active)
- EC50 [10]: > 120 µM (not active)
- EC50 [11]: > 120 µM (not active)

Structure (SMILES): COc1cc(/C=N/NC(=O)NC23CC4CC(CC(C4)C2)C3)ccc1OCC(N)=O
- IC50 (H9c2): > 79 µM (inactive)

Structure (SMILES): CC(C)OC(=O)/C(C#N)=C/c1cn(Cc2ccccc2)c2ccccc12
- EC50 [9]: 11.5 µM (active)
- EC50 [10]: 13.4 µM (active)
- EC50 [11]: 7.08 µM (active)

Structure (SMILES): COc1cc(C(=O)O/N=C2/C=CC(=O)C(C)=C2C)cc(OC)c1OC
- EC50 [1]: 18.3 µM (active)
- EC50 [2]: 19 µM (active)

Structure (SMILES): CCOc1nc(NCCc2ccc(OC)c(OC)c2)nc(N2CCN(c3ccc(OC)cc3)CC2)n1
- EC50 [1]: 6.42 µM (active)
- EC50 [2]: 10.5 µM (active)

Structure (SMILES): CCOC(=O)CSc1nc(O)c2ccccc2n1
- IC50 (H9c2): > 79 µM (inactive)

Structure (SMILES): O=C(Nc1ccc2nc(N3CCOCC3)sc2c1)c1cc2ccccc2o1
- IC50 (H9c2): > 79 µM (inactive)

Structure (SMILES): CCc1cc(=O)oc2cc(OC(C)C(=O)NCC(O)c3ccccc3)c(Cl)cc12 (stereo not given)
- EC50 [9]: > 120 µM (not active)
- EC50 [10]: > 120 µM (not active)
- EC50 [11]: > 120 µM (not active)

Structure (SMILES): O=C(N/N=C/c1ccccc1O)/C(=C/c1ccccc1)CCO
- EC50 (cells [14]): 50.4 µM (active)
- EC50 (cells [15]): > 350 µM (not active)
- AC50 (INS1): 2.57 µM (active)

Structure (SMILES): NC(=O)c1nsc(C(=O)N(c2ccccc2)C(C(=O)NCc2ccc(F)cc2)c2ccc(O)cc2)c1N (stereo not given)
- IC50 (H9c2): > 79 µM (inactive)
